Experimental data published in ChEMBL document CHEMBL4406859, “Antitumor and antiviral activities of 4-substituted 1,2,3-triazolyl-2,3-dibenzyl-L-ascorbic acid derivatives” (Eur J Med Chem, 2019).
Activity calls are given as the source filed them. The calls are words filed in the database; no cut-off is given here.

The molecules below were run on Vaccinia virus (assay: Antiviral activity against Vaccinia virus infected in human HELF cells assessed as reduction in virus-induced cytopathogenicity incubated for 7 days by microscopic analysis). Conditions: Orthopoxvirus vaccinia.
Format: functional, organism-based

| Compound | Activity |
| --- | --- |
| CCCCc1cn(C[C@H](O)[C@H]2OC(=O)C(OCc3ccccc3)=C2OCc2ccccc2)nn1 | inactive |
| O=C1O/C(=C\Cn2cc(CCO)nn2)C(OCc2ccccc2)=C1OCc1ccccc1 | inactive |
| O=C1O/C(=C\Cn2cc(-c3ccc(Br)cc3)nn2)C(OCc2ccccc2)=C1OCc1ccccc1 | inactive |
| O=C1O/C(=C\Cn2cc(-c3cc(F)cc(F)c3)nn2)C(OCc2ccccc2)=C1OCc1ccccc1 | inactive |
| C[Si](C)(C)c1cn(C[C@H](O)[C@H]2OC(=O)C(OCc3ccccc3)=C2OCc2ccccc2)nn1 | inactive |
| CC(C)(C)c1cn(C/C=C2\OC(=O)C(OCc3ccccc3)=C2OCc2ccccc2)nn1 | inactive |
| O=C1O[C@H]([C@@H](O)Cn2cc(C3CC3)nn2)C(OCc2ccccc2)=C1OCc1ccccc1 | inactive |
| CCCCCCCCCCc1cn(C[C@H](O)[C@H]2OC(=O)C(OCc3ccccc3)=C2OCc2ccccc2)nn1 | inactive |
| COc1ccc(-c2cn(C/C=C3\OC(=O)C(OCc4ccccc4)=C3OCc3ccccc3)nn2)cc1 | inactive |
| Cc1ccc(-c2cn(C/C=C3\OC(=O)C(OCc4ccccc4)=C3OCc3ccccc3)nn2)cc1 | inactive |
| COc1ccccc1-c1cn(C/C=C2\OC(=O)C(OCc3ccccc3)=C2OCc2ccccc2)nn1 | inactive |
| CC(C)(C)c1cn(C[C@H](O)[C@H]2OC(=O)C(OCc3ccccc3)=C2OCc2ccccc2)nn1 | inactive |
| O=C1O/C(=C\Cn2cc(-c3cccc(O)c3)nn2)C(OCc2ccccc2)=C1OCc1ccccc1 | inactive |

Same assay, conditions: Orthopoxvirus vaccinia, 168 h

| Compound | EC50 [µM] |
| --- | --- |
| Nc1nc(O)c2ncn(COC(CO)CO)c2n1 [GANCICLOVIR] | > 100 |
| O=c1[nH]c(=O)n([C@H]2C[C@H](O)[C@@H](CO)O2)cc1/C=C/Br [BRIVUDINE] | 85 |
| CCCCc1cn(C/C=C2\OC(=O)C(OCc3ccccc3)=C2OCc2ccccc2)nn1 | > 100 |
| Nc1nc2c(ncn2COCCO)c(=O)[nH]1 [ACYCLOVIR] | > 250 |
